Here are results for 4 compounds from PMC12378631, “Novel macrocyclic peptidomimetics targeting the insulin-regulated aminopeptidase (IRAP): design, synthesis and evaluation” (RSC Medicinal Chemistry, 2025).

Data set [1] addresses insulin-regulated aminopeptidase (IRAP) (Homo sapiens, UniProt Q9UIQ6). As to conditions: for IC50 higher than compound 37: compared with compound 37.
For data set [2] the following is noted: cited from earlier work.
For data set [3], the system named is dendritic spine density in the hippocampus. Also noted: method as in PMID 26769413. The settings on record: cited from earlier work.
The subject of data set [4] is rodent models of cognitive impairment. Further details: method as in PMID 10234025, PMID 11707427, PMID 3252173, PMID 14980384. As to conditions: cited from earlier work.

pIC50: −log10 of the molar value.

insulin-regulated aminopeptidase (IRAP), sequence (Q9UIQ6 whole entry): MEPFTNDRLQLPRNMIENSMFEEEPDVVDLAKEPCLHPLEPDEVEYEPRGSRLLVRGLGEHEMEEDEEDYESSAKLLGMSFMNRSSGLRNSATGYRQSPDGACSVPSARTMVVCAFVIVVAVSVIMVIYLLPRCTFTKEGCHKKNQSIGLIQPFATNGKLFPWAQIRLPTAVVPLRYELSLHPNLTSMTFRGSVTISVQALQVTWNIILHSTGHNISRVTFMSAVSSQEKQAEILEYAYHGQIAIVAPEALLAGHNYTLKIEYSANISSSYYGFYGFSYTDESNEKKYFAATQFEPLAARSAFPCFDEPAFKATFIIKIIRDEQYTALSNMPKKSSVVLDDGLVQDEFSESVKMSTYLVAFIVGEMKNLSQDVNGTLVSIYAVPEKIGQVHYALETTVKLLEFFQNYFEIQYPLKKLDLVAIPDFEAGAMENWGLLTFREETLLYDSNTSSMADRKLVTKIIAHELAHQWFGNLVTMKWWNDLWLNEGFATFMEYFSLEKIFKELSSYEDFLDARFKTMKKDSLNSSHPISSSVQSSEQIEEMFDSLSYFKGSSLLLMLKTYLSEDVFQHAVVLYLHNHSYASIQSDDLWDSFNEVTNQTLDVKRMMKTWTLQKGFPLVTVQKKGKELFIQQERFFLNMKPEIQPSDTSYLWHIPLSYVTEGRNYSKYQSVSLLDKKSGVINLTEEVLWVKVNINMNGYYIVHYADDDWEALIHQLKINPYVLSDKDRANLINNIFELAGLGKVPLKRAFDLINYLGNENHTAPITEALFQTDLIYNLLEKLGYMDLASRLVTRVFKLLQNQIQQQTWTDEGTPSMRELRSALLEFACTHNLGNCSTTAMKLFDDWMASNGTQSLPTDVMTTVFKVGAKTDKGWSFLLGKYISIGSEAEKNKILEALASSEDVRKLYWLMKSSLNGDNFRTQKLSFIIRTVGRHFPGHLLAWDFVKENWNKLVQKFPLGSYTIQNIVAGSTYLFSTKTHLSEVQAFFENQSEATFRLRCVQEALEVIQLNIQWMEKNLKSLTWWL

As for `N[C@H]1CCSSC[C@@H](C(=O)NCc2cccc(C(=O)O)c2)NC(=O)C[C@H](Cc2ccc(O)cc2)NC1=O` [Compound 38], in data set [1], the pIC50 was 6.04 and the “IC50 higher than compound 37” value stood at 14 fold. For `N[C@H]1CCSSC[C@@H](C(=O)NCc2ccc(C(=O)O)cc2)NC(=O)C[C@H](Cc2ccc(O)cc2)NC1=O` [Compound 39], in data set [1], the negative-log IC50 (pIC50) is 5.53 and the “IC50 higher than compound 37” value came to 46 fold. Take `N[C@H]1CCSSC[C@@H](C(=O)NCc2ccccc2CC(=O)O)NC(=O)C[C@H](Cc2ccc(O)cc2)NC1=O` [HA08]: in data set [2], the “susceptibility to proteolytic degradation in vivo” value is listed as “susceptible to proteolytic degradation in vivo”. Further, the “dendritic spine density in the hippocampus” value in data set [3] is “increase dendritic spine density in the hippocampus”.

As for Val–Tyr–Ile–His–Pro–Phe [Ang IV], in data set [4], the “performance in rodent models of cognitive impairment” value is reported as “improves performance in rodent models of cognitive impairment”.

A word on the pIC50: it is the IC50 on a negative log10 scale, so that one unit is a factor of ten. A lower pIC50 goes with a large IC50.
